Measured values reported in ChEMBL document CHEMBL4610128, “Structural and Mechanistic Basis of the Inhibitory Potency of Selected 2-Aminothiazole Compounds on Protein Kinase CK2” (J Med Chem, 2020).

Assays:
[1] = target: Casein kinase II alpha'/ beta (Homo sapiens) (UniProt P67870+P19784); experiment: Ratio of Ki for ATP uncompetitive inhibition to Ki for ATP competitive inhibition of recombinant human CK2alpha2 (1 to 335 residues)/CK2beta2 (1 to 193 residues) expressed in Escherichia coli BL21(DE3)
[2] = target: Casein kinase II alpha/beta (Homo sapiens, UniProt P68400); experiment: ATP competitive inhibition of recombinant human CK2alpha2 (1 to 335 residues)/CK2beta2 (1 to 193 residues) expressed in Escherichia coli BL21(DE3) using RRRDDDSDDD as substrate preincubated for 10 mins followed by substrate addition and measured after 5 mins in presence of varying level of [gamma-32P]ATP by Dixon-plot analysis

Row | Ratio Ki [1] | Ki [2] [nM] | Compound
1 | 36.5 | 1470 | O=C(O)c1cccc(Nc2nc(-c3ccccn3)cs2)c1
2 | 16.3 | 206 | O=C(O)c1ccc(Nc2nc(-c3ccc(Cl)cc3)cs2)cc1O
